Test results: ChEMBL document CHEMBL5052827, “Ash1l inhibitors and methods of treatment therewith” (2020)
Activity calls are given as the source filed them. No cut-off for these calls is given here.

tested on: K562; assay: Antiproliferative activity against human K562 cells measured after 14 days by MTT assay; format: functional; conditions: K562, 336 h, time 14 day

GI50 [µM] | SMILES
> 25 | CC1CN(S(C)(=O)=O)CCC1n1cc(-c2cccc(C(N)=S)c2)c2ccc(N)cc21 (configuration not stated)
> 50 | CC(C)S(=O)(=O)N1CCC(n2cc(-c3cccc(C(N)=S)c3)c3ccc(CNc4nnc(N)s4)cc32)CC1

tested on: MV4-11; assay: Induction of human MV4-11 cell differentiation at 6 to 12 uM measured after 7 days; format: functional, cell-based; conditions: dose 6-12 µM, time 7.0 day

SMILES | Activity
CC1CN(S(C)(=O)=O)CCC1n1cc(-c2cccc(C(N)=S)c2)c2ccc(N)cc21 (configuration not stated) | Active

tested on: MV4-11; assay: Antitumor activity in human MV4-11-Luc cells xenografted female NSG mouse assessed as decrease in leukemia progression at 25 mg/kg, ip administered twice a day for 21 days; format: functional, organism-based; conditions: time 21.0 day

SMILES | Activity
NC(=S)c1cccc(-c2cn(C3CCN(S(=O)(=O)C(F)(F)F)CC3)c3cc(CNC(=O)C4CNC4)ccc23)c1 | Active

tested on: SEM cells; assay: Antiproliferative activity against human SEM cells measured after 14 days by MTT assay; format: functional; conditions: 336 h, time 14 day

SMILES | GI50 [µM]
CC(C)S(=O)(=O)N1CCC(n2cc(-c3cccc(C(N)=S)c3)c3ccc(CNc4nnc(N)s4)cc32)CC1 | 2

tested on: MOLM-13; assay: Antiproliferative activity against human MOLM-13 cells measured after 14 days by MTT assay; format: functional; conditions: MOLM-13, 336 h, time 14 day

GI50 [µM] | SMILES
2.7 | CC1CN(S(C)(=O)=O)CCC1n1cc(-c2cccc(C(N)=S)c2)c2ccc(N)cc21 (configuration not stated)
5.5 | CC(C)S(=O)(=O)N1CCC(n2cc(-c3cccc(C(N)=S)c3)c3ccc(CNc4nnc(N)s4)cc32)CC1

tested on: MV4-11; assay: Antiproliferative activity against human MV4-11 cells measured after 14 days by MTT assay; format: functional; conditions: MV4-11, 336 h, time 14 day

GI50 [µM] | SMILES
2.5 | CC(C)S(=O)(=O)N1CCC(n2cc(-c3cccc(C(N)=S)c3)c3ccc(CNc4nnc(N)s4)cc32)CC1

tested on: not listed separately; assay: Cytotoxicity against human CD34-positive cells; format: toxicity, cell-based, CD34-positive (myeloid/lymphoid) cell; conditions: not given

SMILES | GI50 [µM]
CC1CN(S(C)(=O)=O)CCC1n1cc(-c2cccc(C(N)=S)c2)c2ccc(N)cc21 (configuration not stated) | > 50

target: Histone-lysine N-methyltransferase ASH1L (Homo sapiens, UniProt Q9NR48); assay: Inhibition of ASH1L SET-BAH construct (unknown origin) (2069 to 2833 residues) using SAM as substrate incubated for 1 hr and measured after 45 mins by Beckman scintillation counter method; conditions: not given

SMILES | IC50 [µM]
CC(C)S(=O)(=O)N1CCC(n2cc(-c3cccc(C(N)=S)c3)c3ccc(CNC(=O)C4CCN4)cc32)CC1 (configuration not stated) | < 20
CCN1CC(C(=O)NCc2ccc3c(-c4cccc(C(N)=S)c4)cn(C4CCN(c5nccs5)CC4)c3c2)C1 | < 20
CNC(=O)NCc1ccc2c(-c3cccc(C(N)=S)c3)cn(C3CCN(S(=O)(=O)C(F)(F)F)CC3)c2c1 | < 20
COc1ccc(Cn2cnc([N+](=O)[O-])c2NCc2ccc3c(-c4cccc(C(N)=S)c4)cn(C4CCOCC4)c3c2)cc1 | < 20
NC(=S)c1cccc(-c2cn(C3CCN(S(=O)(=O)CCCNC(=O)CCCC[C@@H]4SC[C@@H]5NC(=O)N[C@@H]54)CC3)c3cc(CNC(=O)c4c[nH]c5ccccc45)ccc23)c1 | < 20
CCC(=O)Nc1ccc2c(-c3cccc(C(N)=S)c3)cn(CC(CF)CF)c2c1 | < 20
CS(=O)(=O)Nc1ccc2c(-c3cccc(C(N)=S)c3)cn(C3CCC(F)(F)CC3)c2c1 | < 20
CC(C)S(=O)(=O)N1CCC(n2cc(-c3cccc(C(N)=S)c3)c3ccc(NC(=O)CCCC[C@@H]4SC[C@@H]5NC(=O)N[C@@H]54)cc32)CC1 | < 20
CCC(=O)Nc1ccc2c(-c3cccc(C(N)=S)c3)cn(C3CCN(S(=O)(=O)C(C)C)CC3)c2c1 | < 20
NC(=S)c1cccc(-c2cn(C3CCC(F)(F)CC3)c3c(Cl)c(N)ccc23)c1 | < 20
NC(=S)c1cccc(-c2cn(C3CCN(S(=O)(=O)C(F)(F)F)CC3)c3cc(CNC(=O)C4CNCCN4)ccc23)c1 (configuration not stated) | < 20
Cc1cc(N2CCC(n3cc(-c4cccc(C(N)=S)c4)c4ccc(CNc5nnc(N)s5)cc43)CC2)n(C)n1 | < 20
CC(=O)Nc1ccc2c(-c3cccc(C(N)=S)c3)cn(C3CCN(S(=O)(=O)C(F)(F)F)CC3)c2c1 | < 20
CCCOC1CCNC1C(=O)NCc1ccc2c(-c3cccc(C(N)=S)c3)cn(C3CCN(S(=O)(=O)C(C)C)CC3)c2c1 (configuration not stated) | < 20
CS(=O)(=O)N1CCC(n2cc(-c3cccc(C(N)=S)c3)c3ccc(NC(=O)CCCCCNC(=O)CCCC[C@@H]4SC[C@@H]5NC(=O)N[C@@H]54)cc32)CC1 | < 20
NC(=S)c1cccc(-c2cn(C3CCN(S(=O)(=O)C(F)(F)F)CC3)c3cc(CNC(=O)NCC4CCN4)ccc23)c1 (configuration not stated) | < 20
CCCOC1CNC(C(=O)NCc2ccc3c(-c4cccc(C(N)=S)c4)cn(C4CCN(S(=O)(=O)C(C)C)CC4)c3c2)C1 (configuration not stated) | < 20

SMILES | IC50 [µM]
CC(C)S(=O)(=O)N1CCC(n2cc(-c3cccc(C(N)=S)c3)c3ccc(N)cc32)CC1 | < 20
NC(=S)c1cccc(-c2cn(C3CCN(S(=O)(=O)C(F)(F)F)CC3)c3cc(NC(=O)CCOCCOCCOCCOCCOCCOCCNC(=O)CCCC[C@@H]4SC[C@@H]5NC(=O)N[C@@H]54)ccc23)c1 | < 20
CC(C)S(=O)(=O)N1CCC(n2cc(-c3cccc(C(N)=S)c3)c3ccc(CNC(=O)C4CNC4)cc32)CC1 | < 20
CCCCCCN1CC(C(=O)NCc2ccc3c(-c4cccc(C(N)=S)c4)cn(C4CCN(S(=O)(=O)C(F)(F)F)CC4)c3c2)C1 | < 20
CN1CC(C(=O)NCc2ccc3c(-c4cccc(C(N)=S)c4)cn(C4CCN(S(=O)(=O)C(F)(F)F)CC4)c3c2Cl)C1 | < 20
COCCN1CC(C(=O)NCc2ccc3c(-c4cccc(C(N)=S)c4)cn(C4CCN(S(C)(=O)=O)CC4)c3c2)C1 | < 20
CS(=O)(=O)Nc1ccc2c(-c3cccc(C(N)=S)c3)cn(C3CCOCC3)c2c1 | < 20
C[C@@H]1CN[C@H](C(=O)NCc2ccc3c(-c4cccc(C(N)=S)c4)cn(C4CCN(S(=O)(=O)C(F)(F)F)CC4)c3c2)C1 | < 20
NC(=S)c1cccc(-c2cn(C3CCN(S(=O)(=O)C(F)(F)F)CC3)c3cc(CNC(=O)[C@@H]4C[C@H](O)CN4)ccc23)c1 | < 20
CN(C)c1cccc2c(S(=O)(=O)NCCCCCCCCC(=O)Nc3ccc4c(-c5cccc(C(N)=S)c5)cn(C5CCC(F)(F)CC5)c4c3)cccc12 | < 20
CS(=O)(=O)N1CCC(n2cc(-c3cccc(C(N)=S)c3)c3ccc(NC(=O)CCOCCOCCOCCOCCOCCOCCOCCOCCNC(=O)CCCC[C@@H]4SC[C@@H]5NC(=O)N[C@@H]54)cc32)CC1 | < 20
NC(=S)c1cccc(-c2cn(C3CCC(F)(F)CC3)c3cc(NC(=O)CCCCCNC(=O)c4ccc5c(c4)C(=O)OC54c5ccc(O)cc5Oc5cc(O)ccc54)ccc23)c1 | < 20
CS(=O)(=O)N1CCC(n2cc(-c3cccc(C(N)=S)c3)c3ccc(NC(=O)CCOCCOCCOCCOCCNC(=O)CCCC[C@@H]4SC[C@@H]5NC(=O)N[C@@H]54)cc32)CC1 | < 20
CC1CN(S(C)(=O)=O)CCC1n1cc(-c2cccc(C(N)=S)c2)c2ccc(CNc3nnc(N)s3)cc21 (configuration not stated) | < 20
NC(=S)c1cccc(-c2cn(CC(CF)CF)c3cc(NC(=O)CCc4nccs4)ccc23)c1 | < 20
CCCCCCN1CC(C(=O)NCc2ccc3c(-c4cccc(C(N)=S)c4)cn(C4CCN(S(C)(=O)=O)CC4)c3c2)C1 | < 20
COCCC(=O)Nc1ccc2c(-c3cccc(C(N)=S)c3)cn(C3CCC(F)(F)CC3)c2c1 | < 20

Now from value to compound:

IC50 [µM] | SMILES
< 20 | CC(C)S(=O)(=O)N1CCC(n2cc(-c3cccc(C(N)=S)c3)c3ccc(CNC(=O)C4CN(C)C4)cc32)CC1
< 20 | NC(=S)c1cccc(-c2cn(C3CCOCC3)c3cc(CNc4cc[nH]n4)ccc23)c1
< 20 | CC(C)S(=O)(=O)N1CCC(n2cc(-c3cccc(C(N)=S)c3)c3ccc(N4CCCC4=O)cc32)CC1
< 20 | NC(=S)c1cccc(-c2cn(C3CCC(F)(F)CC3)c3cc(CNC(=O)C4CNC4)ccc23)c1
< 20 | CS(=O)(=O)N1CCC(n2cc(-c3cccc(C(N)=S)c3)c3ccc(NC(=O)CCCCCNC(=O)c4ccc5c(c4)C(=O)OC54c5ccc(O)cc5Oc5cc(O)ccc54)cc32)CC1
< 20 | COc1cccc2[nH]cc(-c3cccc(C(N)=S)c3)c12
< 20 | CS(=O)(=O)N1CCC(n2cc(-c3cccc(C(N)=S)c3)c3ccc(CNC(=O)Cc4c[nH]cn4)c(Cl)c32)CC1
< 20 | NC(=S)c1cccc(-c2cn(CC(CF)CF)c3cc(NC(=O)Cc4nccs4)ccc23)c1
< 20 | NC(=S)c1cccc(-c2cn(C3CCN(c4nccs4)CC3)c3cc(CNC(=O)c4c[nH]c5ncccc45)ccc23)c1
< 20 | CC1CC(n2cc(-c3cccc(C(N)=S)c3)c3ccc(CNc4nnc(N)s4)cc32)CCO1 (configuration not stated)
< 20 | CS(=O)(=O)N1CC2CCC1CC2n1cc(-c2cccc(C(N)=S)c2)c2ccc(N)cc21 (configuration not stated)
< 20 | CC(C)S(=O)(=O)N1CCC(n2cc(-c3cccc(C(N)=S)c3)c3ccc(CNC(=O)C4CCCN4)cc32)CC1 (configuration not stated)
< 20 | CC1CC(n2cc(-c3cccc(C(N)=S)c3)c3ccc(N)cc32)CCN1S(C)(=O)=O (configuration not stated)
< 20 | NC(=S)c1cccc(-c2cn(C3CCN(S(=O)(=O)C(F)(F)F)CC3)c3cc(CNC(=O)[C@@H]4C[C@H](F)CN4)ccc23)c1
< 20 | COCCC(=O)Nc1ccc2c(-c3cccc(C(N)=S)c3)cn(CC(CF)CF)c2c1
< 20 | CC(C)S(=O)(=O)N1CCC(n2cc(-c3cccc(C(N)=S)n3)c3ccc(CNc4nnc(N)s4)cc32)CC1
< 20 | NC(=S)c1cccc(-c2cn(C3CCN(S(=O)(=O)C(F)(F)F)CC3)c3cc(CNc4nnc(N)s4)ccc23)c1
< 20 | COc1ccc(Cn2cnc(NCc3ccc4c(-c5cccc(C(N)=S)c5)cn(C5CCOCC5)c4c3)c2[N+](=O)[O-])cc1
< 20 | CC1CN(S(C)(=O)=O)CCC1n1cc(-c2cccc(C(N)=S)c2)c2ccc(CNC(=O)C3CN(C)C3)cc21 (configuration not stated)
< 20 | NC(=S)c1cccc(-c2cn(C3CCOCC3)c3cc(CNc4nnc(N)[nH]4)ccc23)c1
< 20 | NC(=S)c1cccc(-c2cn(C3CCN(c4nccs4)CC3)c3cc(CNC(=O)C4CNC4)ccc23)c1
< 20 | NC(=S)c1cccc(-c2cn(C3CCN(c4nccs4)CC3)c3cc(CNc4nnc(N)s4)ccc23)c1

tested on: KOPN-8; assay: Antiproliferative activity against human KOPN-8 cells measured after 14 days by MTT assay; format: functional; conditions: KOPN-8, 336 h, time 14 day

SMILES | GI50 [µM]
CC1CN(S(C)(=O)=O)CCC1n1cc(-c2cccc(C(N)=S)c2)c2ccc(N)cc21 (configuration not stated) | 2.5
CC(C)S(=O)(=O)N1CCC(n2cc(-c3cccc(C(N)=S)c3)c3ccc(CNc4nnc(N)s4)cc32)CC1 | 5
